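48-hour exposure; five concentrations; linearly interpolated endpoints. At the GI50, growth is halved. At the TGI there is no net growth.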
How the values were obtained:
Test in all cases: inhibition of tumour cell growth, NCI panel, 48 h
CAKI-1 renal = system: CAKI-1 renal
SK-OV-3 ovarian = system: SK-OV-3 ovarian
NCI-H23 lung = system: NCI-H23 lung
PC-3 prostate = system: PC-3 prostate
T-47D breast = system: T-47D breast
K-562 leukemia = system: K-562 leukemia
SF-539 CNS = system: SF-539 CNS
NCI-H226 lung = system: NCI-H226 lung
SK-MEL-5 melanoma = system: SK-MEL-5 melanoma
HL-60(TB) leukemia = system: HL-60(TB) leukemia
A498 renal = system: A498 renal
EKVX NSCLC = system: EKVX NSCLC
MCF7 breast = system: MCF7 breast
OVCAR-5 ovarian = system: OVCAR-5 ovarian
SR leukemia = system: SR leukemia
OVCAR-8 ovarian = system: OVCAR-8 ovarian
786-0 renal = system: 786-0 renal
SF-295 CNS = system: SF-295 CNS
HOP-62 NSCLC = system: HOP-62 NSCLC
ACHN renal = system: ACHN renal
TK-10 renal = system: TK-10 renal
BT-549 breast = system: BT-549 breast
UACC-62 melanoma = system: UACC-62 melanoma
IGROV1 ovarian = system: IGROV1 ovarian
NCI-H460 lung = system: NCI-H460 lung
SK-MEL-2 melanoma = system: SK-MEL-2 melanoma
SNB-19 CNS = system: SNB-19 CNS
A549 NSCLC = system: A549 NSCLC
HCT-116 colon = system: HCT-116 colon

Compound: Nc1nc(-c2ccc(Cl)cc2)cc(-c2ccccc2)c1-c1nc2ccccc2o1
- GI50 (CAKI-1 renal): 12.2 µM
- TGI (CAKI-1 renal): 28.6 µM
- GI50 (SK-OV-3 ovarian): 15.4 µM
- TGI (SK-OV-3 ovarian): 32.4 µM
- GI50 (NCI-H23 lung): 6.24 µM
- TGI (NCI-H23 lung): 34.6 µM
- GI50 (PC-3 prostate): 4.62 µM
- TGI (PC-3 prostate): 16.8 µM
- GI50 (T-47D breast): 10.2 µM
- TGI (T-47D breast): 27.2 µM
- GI50 (K-562 leukemia): 3.69 µM
- TGI (K-562 leukemia): > 100 µM
- GI50 (SF-539 CNS): 16.1 µM
- TGI (SF-539 CNS): 32.2 µM
- GI50 (NCI-H226 lung): 15.1 µM
- TGI (NCI-H226 lung): 31.3 µM
- GI50 (SK-MEL-5 melanoma): 14.6 µM
- TGI (SK-MEL-5 melanoma): 29.4 µM
- GI50 (HL-60(TB) leukemia): 3.47 µM
- TGI (HL-60(TB) leukemia): 9.23 µM
- GI50 (A498 renal): 15.8 µM
- TGI (A498 renal): 30.5 µM
- GI50 (EKVX NSCLC): 12.4 µM
- TGI (EKVX NSCLC): 28 µM
- GI50 (MCF7 breast): 3.1 µM
- TGI (MCF7 breast): > 100 µM
- GI50 (OVCAR-5 ovarian): 19.8 µM
- TGI (OVCAR-5 ovarian): 54.7 µM
- GI50 (SR leukemia): 3.37 µM
- TGI (SR leukemia): 8.97 µM
- GI50 (OVCAR-8 ovarian): 14.1 µM
- TGI (OVCAR-8 ovarian): 54.1 µM
- GI50 (786-0 renal): 4.52 µM
- TGI (786-0 renal): 19.8 µM
- GI50 (SF-295 CNS): 15 µM
- TGI (SF-295 CNS): 35.6 µM
- GI50 (HOP-62 NSCLC): 2920 nM
- TGI (HOP-62 NSCLC): 7.47 µM
- GI50 (ACHN renal): 8.8 µM
- TGI (ACHN renal): 23.3 µM
- GI50 (TK-10 renal): 3.02 µM
- TGI (TK-10 renal): 8.95 µM
- GI50 (BT-549 breast): 13.5 µM
- TGI (BT-549 breast): 28.3 µM
- GI50 (UACC-62 melanoma): 15.8 µM
- TGI (UACC-62 melanoma): 30.7 µM
- GI50 (IGROV1 ovarian): 12.5 µM
- TGI (IGROV1 ovarian): 49 µM
- GI50 (NCI-H460 lung): 3.98 µM
- TGI (NCI-H460 lung): > 100 µM
- GI50 (SK-MEL-2 melanoma): 15.5 µM
- TGI (SK-MEL-2 melanoma): 39.2 µM
- GI50 (SNB-19 CNS): 18.6 µM
- TGI (SNB-19 CNS): 44.6 µM
- GI50 (A549 NSCLC): 5.9 µM
- TGI (A549 NSCLC): > 100 µM
- GI50 (HCT-116 colon): 3.21 µM
- TGI (HCT-116 colon): 9.17 µM
